{
  "source": "ChEMBL document CHEMBL2311360",
  "about": "(J Med Chem, 2013)",
  "key": {"[1]": {"test_system": "HCT-116/VM46", "assay": "Cytotoxicity against human vinblastine-resistant HCT116/VM46 cells assessed as growth inhibition after 72 hrs by phosphatase assay", "format": "functional, cell-based", "conditions": "HCT-116/VM46, 72 h"}, "[2]": {"test_system": "HCT-116", "assay": "Cytotoxicity against human HCT116 cells assessed as growth inhibition after 72 hrs by phosphatase assay", "format": "functional, cell-based", "conditions": "HCT-116, 72 h"}, "[3]": {"test_system": "L1210", "assay": "Cytotoxicity against mouse L1210 cells assessed as growth inhibition after 72 hrs by phosphatase assay", "format": "functional, cell-based", "conditions": "L1210, 72 h"}, "[4]": {"target": "Tubulin (Sus scrofa) (UniProt P02554+P02550)", "sequence (P02550 whole entry, looked up)": "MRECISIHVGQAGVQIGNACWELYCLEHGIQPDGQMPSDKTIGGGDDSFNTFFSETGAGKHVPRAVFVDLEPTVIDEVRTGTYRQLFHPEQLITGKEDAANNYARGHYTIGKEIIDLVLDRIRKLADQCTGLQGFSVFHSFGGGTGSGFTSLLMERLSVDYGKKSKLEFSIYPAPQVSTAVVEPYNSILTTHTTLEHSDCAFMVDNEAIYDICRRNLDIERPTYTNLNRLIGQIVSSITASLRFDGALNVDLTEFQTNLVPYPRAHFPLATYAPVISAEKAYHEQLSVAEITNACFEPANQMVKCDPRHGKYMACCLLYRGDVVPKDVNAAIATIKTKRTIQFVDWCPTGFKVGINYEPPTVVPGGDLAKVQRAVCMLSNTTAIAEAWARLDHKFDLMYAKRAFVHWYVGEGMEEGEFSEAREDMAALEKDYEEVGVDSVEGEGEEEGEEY", "sequence (P02554 whole entry, looked up)": "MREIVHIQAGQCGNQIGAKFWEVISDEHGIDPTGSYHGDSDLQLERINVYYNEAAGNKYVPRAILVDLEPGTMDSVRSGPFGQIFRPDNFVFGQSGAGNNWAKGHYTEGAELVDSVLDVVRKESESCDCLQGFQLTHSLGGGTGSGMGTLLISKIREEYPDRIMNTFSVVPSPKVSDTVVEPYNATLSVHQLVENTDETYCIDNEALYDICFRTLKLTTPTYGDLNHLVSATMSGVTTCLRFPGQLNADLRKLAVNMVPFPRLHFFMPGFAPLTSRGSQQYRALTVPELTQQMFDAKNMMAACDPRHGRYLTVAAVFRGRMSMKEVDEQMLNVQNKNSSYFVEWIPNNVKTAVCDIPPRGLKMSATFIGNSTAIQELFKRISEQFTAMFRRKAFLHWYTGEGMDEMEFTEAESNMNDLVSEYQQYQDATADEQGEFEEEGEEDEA", "assay": "Displacement of [3H]Vinblastine from pig tubulin at 7.2 x 10^-5 M after 60 mins", "format": "protein assay"}},
  "data": [
    {"smiles": "CC[C@]1(O)C[C@H]2CN(CCc3c([nH]c4ccccc34)[C@@](C(=O)OC)(c3cc4c(cc3OC)N(C)[C@@H]3[C@]45CCN4CC=C[C@@](CC)(C[C@]3(O)C(=O)OC)[C@H]45)C2)C1", "values": [
      {"measurement": "IC50", "setting": "[1]", "result": 0.66, "unit": "µM"},
      {"measurement": "IC50", "setting": "[2]", "result": 0.06, "unit": "µM"},
      {"measurement": "IC50", "setting": "[3]", "result": 0.06, "unit": "µM"}
    ]},
    {"smiles": "CC[C@]1(O)C[C@H]2CN(CCc3c([nH]c4ccccc34)[C@@](C(=O)OC)(c3cc4c(cc3OC)N(C)[C@H]3[C@@](O)(C(=O)OC)[C@@H](OC(C)=O)[C@]5(CC)C=CCN6CC[C@]43[C@@H]65)C2)C1", "values": [
      {"measurement": "IC50", "setting": "[1]", "result": 8.4, "unit": "µM"},
      {"measurement": "IC50", "setting": "[2]", "result": 0.08, "unit": "µM"},
      {"measurement": "IC50", "setting": "[3]", "result": 0.075, "unit": "µM"}
    ]},
    {"smiles": "CC[C@]1(O)C[C@H]2CN(CCc3c([nH]c4ccccc34)[C@@](C(=O)OC)(c3cc4c(cc3OC)N(C)[C@@H]3[C@]45CCCN4CCC[C@@](CC)(C[C@]3(O)C(=O)OC)[C@H]45)C2)C1", "values": [
      {"measurement": "IC50", "setting": "[1]", "result": "> 10", "unit": "µM"},
      {"measurement": "IC50", "setting": "[2]", "result": 7.4, "unit": "µM"},
      {"measurement": "IC50", "setting": "[3]", "result": 5.7, "unit": "µM"}
    ]},
    {"smiles": "CC[C@]1(O)C[C@H]2CN(CCc3c([nH]c4ccccc34)[C@@](C(=O)OC)(c3cc4c(cc3OC)N(C)[C@@H]3[C@]45CCCN4CC=C[C@@](CC)(C[C@]3(O)C(=O)OC)[C@@H]45)C2)C1", "values": [
      {"measurement": "IC50", "setting": "[1]", "result": 0.73, "unit": "µM"},
      {"measurement": "IC50", "setting": "[2]", "result": 0.1, "unit": "µM"},
      {"measurement": "IC50", "setting": "[3]", "result": 0.065, "unit": "µM"}
    ]},
    {"smiles": "CC[C@]1(O)C[C@H]2CN(CCc3c([nH]c4ccccc34)[C@@](C(=O)OC)(c3cc4c(cc3OC)N(C)[C@H]3[C@@](O)(C(=O)OC)[C@H](OC(C)=O)[C@]5(CC)CCCN6CC[C@]43[C@@H]65)C2)C1", "values": [
      {"measurement": "IC50", "setting": "[1]", "result": 4.5, "unit": "µM"},
      {"measurement": "IC50", "setting": "[2]", "result": 0.37, "unit": "µM"},
      {"measurement": "inhibition", "setting": "[4]", "result": 77.4, "unit": "%"},
      {"measurement": "IC50", "setting": "[3]", "result": 0.57, "unit": "µM"}
    ]},
    {"smiles": "CCC1=C[C@H]2CN(CCc3c([nH]c4ccccc34)[C@@](C(=O)OC)(c3cc4c(cc3OC)N(C)[C@H]3[C@@](O)(C(=O)OC)[C@H](OC(C)=O)[C@]5(CC)CCN6CC[C@]43[C@@H]65)C2)C1", "values": [
      {"measurement": "IC50", "setting": "[1]", "result": 7, "unit": "µM"},
      {"measurement": "IC50", "setting": "[2]", "result": 0.63, "unit": "µM"},
      {"measurement": "IC50", "setting": "[3]", "result": 0.7, "unit": "µM"}
    ]},
    {"smiles": "CC[C@]1(O)C[C@H]2CN(CCc3c([nH]c4ccccc34)[C@@](C(=O)OC)(c3cc4c(cc3OC)N(C)[C@H]3[C@@](O)(C(=O)OC)[C@H](OC(C)=O)[C@]5(CC)CCN6CC[C@]43[C@@H]65)C2)C1", "values": [
      {"measurement": "IC50", "setting": "[1]", "result": 7.8, "unit": "µM"},
      {"measurement": "IC50", "setting": "[2]", "result": 0.08, "unit": "µM"},
      {"measurement": "IC50", "setting": "[3]", "result": 0.56, "unit": "µM"}
    ]},
    {"smiles": "CC[C@]1(O)C[C@H]2CN(CCc3c([nH]c4ccccc34)[C@@](C(=O)OC)(c3cc4c(cc3OC)N(C)[C@@H]3[C@]45CCCN4CCC[C@@](CC)(C[C@]3(O)C(=O)OC)[C@@H]45)C2)C1", "values": [
      {"measurement": "IC50", "setting": "[1]", "result": 0.9, "unit": "µM"},
      {"measurement": "IC50", "setting": "[2]", "result": 0.08, "unit": "µM"},
      {"measurement": "IC50", "setting": "[3]", "result": 0.055, "unit": "µM"}
    ]},
    {"smiles": "CC[C@]1(O)C[C@H]2CN(CCc3c([nH]c4ccccc34)[C@@](C(=O)OC)(c3cc4c(cc3OC)N(C)[C@H]3[C@@](O)(C(=O)OC)[C@@H](OC(C)=O)[C@]5(CC)CCN6CCC[C@]43[C@@H]65)C2)C1", "values": [
      {"measurement": "IC50", "setting": "[1]", "result": 7.6, "unit": "µM"},
      {"measurement": "IC50", "setting": "[2]", "result": 0.68, "unit": "µM"},
      {"measurement": "IC50", "setting": "[3]", "result": 0.6, "unit": "µM"}
    ]},
    {"smiles": "CC[C@]1(O)C[C@H]2CN(CCc3c([nH]c4ccccc34)[C@@](C(=O)OC)(c3cc4c(cc3OC)N(C)[C@@H]3[C@]45CCN4CCC[C@@](CC)(C[C@]3(O)C(=O)OC)[C@H]45)C2)C1", "values": [
      {"measurement": "IC50", "setting": "[1]", "result": 4, "unit": "µM"},
      {"measurement": "IC50", "setting": "[2]", "result": 0.67, "unit": "µM"},
      {"measurement": "IC50", "setting": "[3]", "result": 0.66, "unit": "µM"}
    ]},
    {"smiles": "CCC1=C[C@@H]2CN(C1)Cc1c([nH]c3ccccc13)[C@@](C(=O)OC)(c1cc3c(cc1OC)N(C)[C@H]1[C@@](O)(C(=O)OC)[C@H](OC(C)=O)[C@]4(CC)C=CCN5CC[C@]31[C@@H]54)C2", "note": "[VINORELBINE]", "values": [
      {"measurement": "IC50", "setting": "[1]", "result": 0.6, "unit": "µM"},
      {"measurement": "IC50", "setting": "[2]", "result": 0.075, "unit": "µM"},
      {"measurement": "IC50", "setting": "[3]", "result": 0.065, "unit": "µM"}
    ]},
    {"smiles": "CC[C@]1(O)C[C@H]2CN(CCc3c([nH]c4ccccc34)[C@@](C(=O)OC)(c3cc4c(cc3OC)N(C)[C@H]3[C@@](O)(C(=O)OC)[C@H](OC(C)=O)[C@]5(CC)CCN6CCC[C@]43[C@@H]65)C2)C1", "values": [
      {"measurement": "IC50", "setting": "[1]", "result": 0.45, "unit": "µM"},
      {"measurement": "IC50", "setting": "[2]", "result": 0.0065, "unit": "µM"},
      {"measurement": "inhibition", "setting": "[4]", "result": 48.4, "unit": "%"},
      {"measurement": "IC50", "setting": "[3]", "result": 0.0072, "unit": "µM"}
    ]},
    {"smiles": "CCC1=C[C@H]2CN(CCc3c([nH]c4ccccc34)[C@@](C(=O)OC)(c3cc4c(cc3OC)N(C)[C@H]3[C@@](O)(C(=O)OC)[C@H](OC(C)=O)[C@]5(CC)CCCN6CC[C@]43[C@@H]65)C2)C1", "values": [
      {"measurement": "IC50", "setting": "[1]", "result": 3.5, "unit": "µM"},
      {"measurement": "IC50", "setting": "[2]", "result": 0.89, "unit": "µM"},
      {"measurement": "IC50", "setting": "[3]", "result": 0.74, "unit": "µM"}
    ]},
    {"smiles": "CC[C@]1(O)C[C@@H]2CN(CCc3c([nH]c4ccccc34)[C@@](C(=O)OC)(c3cc4c(cc3OC)N(C)[C@H]3[C@@](O)(C(=O)OC)[C@H](OC(C)=O)[C@]5(CC)C=CCN6CC[C@]43[C@@H]65)C2)C1", "values": [
      {"measurement": "inhibition", "setting": "[4]", "result": 50, "unit": "%"}
    ]},
    {"smiles": "CC[C@]1(O)C[C@H]2CN(CCc3c([nH]c4ccccc34)[C@@](C(=O)OC)(c3cc4c(cc3OC)N(C)[C@@H]3[C@]45CCCN4CC=C[C@@](CC)(C[C@]3(O)C(=O)OC)[C@H]45)C2)C1", "values": [
      {"measurement": "IC50", "setting": "[1]", "result": 5.7, "unit": "µM"},
      {"measurement": "IC50", "setting": "[2]", "result": 0.43, "unit": "µM"},
      {"measurement": "inhibition", "setting": "[4]", "result": 68.5, "unit": "%"},
      {"measurement": "IC50", "setting": "[3]", "result": 0.37, "unit": "µM"}
    ]}
  ]
}
